Entries after “also recorded” stand apart in the source; their conditions may differ. Where no end group is shown, it is not given here.
Experiments:
[1] = test system: GHSR labeled with 7H4MC-ethylglycine at F272^6.44; experiment: Hydration parameter H from 7H4MC fluorescence emission; type: biochemical, human; conditions: for H parameter: 6.44
Text: (§1) We then investigated whether the fluorescence properties of 7H4MC-ethylglycine could report on the local hydration features of GHSR. To this end, we analyzed the 7H4MC emission profile for each of the positions considered. An excitation wavelength of 320 nm was systematically used to excite the neutral form of the fluorophore ([Amaro et al., 2015]). The emission spectra were deconvoluted into their separate components using the procedure initially described ([Amaro et al., 2015]). A hydration parameter H was then determined that corresponded to the sum of the contributions of the anionic and tautomer forms. This parameter is an indicator of the extent of hydration at the position considered, as the higher the H parameter the higher local hydration ([Amaro et al., 2015]). A difference in the H parameter inferred for the 7H4MC probe at the different positions of the apo GHSR was observed depending on the position considered (Figure 2—figure supplement 1, 2).
(§2) Figure 2. Local hydration of growth hormone secretagogue receptor (GHSR) as a function of ligands. […] All ligands were used at a 10 µM concentration. In all cases, the data represents the mean value ± SD of three experiments. Statistical analyses are provided in […]—figure supplement 2 and 4. Figure 2—source data 1. H parameter for GHSR and its mutants. Figure 2—figure supplement 1. Emission spectra of L-(7-hydroxycoumarin-4-yl) (7H4MC)-ethylglycine incorporated into isolated growth hormone secretagogue receptor (GHSR). The spectra were recorded in the absence of ligand. The labeling positions are given in a snake-like plot of GHSR ([Shiimura et al., 2020]) (A) (red: positions deleterious to GHSR function; green: positions considered in this work), and then indicated in each panel (B–F). The excitation wavelength was set to 320 nm with an emission intensity recorded between 340 and 600 nm. The gray curve represents the experimental emission spectrum (exp). The red, blue, green, and magenta spectra represent the decomposition of the experimental spectrum into its neutral (N), complexed (C), anionic (A), and tautomeric (T) components, respectively. The orange curve (fit) corresponds to sum of the individual N, C, A, and T curves. Figure 2—figure supplement 1—source data 1. 7-H4MC emission intensity of the apo GHSR mutants. [drawing 7] Figure 2—figure supplement 2. Statistical analysis of the data in Figure 2. […] Data is from Figure 2. […] Structure of the ligands used throughout this work. [drawing 9] Figure 2—figure supplement 4. Statistical analysis of the data in Figure 2. The left panels show the hydration parameter for each of the mutants in the absence or in the presence of ligands. Data are from Figure 2. The right panels show the mean difference between the apo and the ligand-loaded states for each of the mutants with multiplicity-adjusted 95% confidence intervals. [drawing 10] Figure 2—figure supplement 5. Emission spectra of L-(7-hydroxycoumarin-4-yl) (7H4MC)-ethylglycine incorporated at position 5.58 of growth hormone secretagogue receptor (GHSR) in the presence of pharmacologically distinct ligands or phosphatidylinositol-4,5-bisphosphate (PIP2). […] The excitation wavelength was set to 320 nm with an emission intensity recorded between 340 and 600 nm. The black curve represents the experimental emission spectrum (exp). The red one (fit) corresponds to sum of the individual curves after decomposition of the experimental spectrum into its neutral, complexed, anionic, and tautomeric components. Figure 2—figure supplement 5—source data 1. 7-H4MC emission intensity of the GHSR 5.58 mutant in the presence of ligands. [drawing 11] Figure 2—figure supplement 6. […]

[2] = test system: GHSR labeled with 7H4MC-ethylglycine at I134^3.43; experiment: as above; type: biochemical, human; conditions: ligand 10 µM, POPC:POPG nanodiscs, 15°C, ex 320 nm
Text: as §1, §2

[3] = test system: GHSR labeled with 7H4MC-ethylglycine at S315^7.45; experiment: as above; type: biochemical, human; conditions: ligand 10 µM, POPC:POPG nanodiscs, 15°C, ex 320 nm
Text: as §1, §2

[4] = test system: GHSR labeled with 7H4MC-ethylglycine at V268^6.40; experiment: as above; type: biochemical, human; conditions: for H parameter: 6.4, ligand 10 µM, POPC:POPG nanodiscs, 15°C, ex 320 nm
Text: as §1, §2

[5] = test system: GHSR labeled with 7H4MC-ethylglycine at Y232^5.58; experiment: as above; type: biochemical, human; conditions: for H parameter: 5.58
Text: as §1, §2

7H4MC-labeled GHSR = experiment: Hydration parameter H from 7H4MC fluorescence emission, several positions together; type: biochemical, human; conditions: positions besides 5.58 and 6.44; saturating ligand (10 µM); vs apo
Text: as §1
Figure 2. Local hydration of growth hormone secretagogue receptor (GHSR) as a function of ligands. […] All ligands were used at a 10 µM concentration. […] The spectra were recorded in the absence of ligand. […] The excitation wavelength was set to 320 nm with an emission intensity recorded between 340 and 600 nm. […] The excitation wavelength was set to 320 nm with an emission intensity recorded between 340 and 600 nm. […]

[6] = test system: GHSR labeled with 7H4MC-ethylglycine at W215^5.41; experiment: Ligand binding and activation of W215^5.41-labeled receptor; type: biochemical, human; conditions: basal activity markedly decreased
[7] = test system: GHSR labeled at I134^3.43, Y232^5.58, V268^6.40, F272^6.44, and S315^7.45; experiment: Effect of 7H4MC-ethylglycine labeling on ghrelin binding and Gq activation; type: biochemical, human; conditions: positions I134^3.43, Y232^5.58, V268^6.40, F272^6.44, S315^7.45
GHSR F272^6.44 mutants = conditions: ref Valentin-Hansen et al., 2012, cited from earlier work
Text: (§3) The fluorescent probe was introduced at different positions along GHSR sequence. […] The absence of major effect on substituting F272^6.44 with 7H4MC-ethylglycine on GHSR functioning was puzzling, as mutating this residue to an ala ...

[8] = test system: GHSR F272^6.44 to alanine mutant; conditions: mutating F272^6.44 to alanine; ref Valentin-Hansen et al., 2012; cited from earlier work
Text: as §3

GHSR = conditions: ref M'Kadmi et al., 2015; cited from earlier work
[9] = ligand 10 µM, POPC:POPG nanodiscs, 15°C, ex 320 nm, replicate 1
[10] = ligand 10 µM, POPC:POPG nanodiscs, 15°C, ex 320 nm, replicate 2
[11] = ligand 10 µM, POPC:POPG nanodiscs, 15°C, ex 320 nm, replicate 3
[12] = Figure 5, 10 µM ghrelin, 2.5% PIP2-to-total lipids molar ratio, replicate 1
[13] = Figure 5, 10 µM ghrelin, 2.5% PIP2-to-total lipids molar ratio, replicate 2
[14] = Figure 5, 10 µM ghrelin, 2.5% PIP2-to-total lipids molar ratio, replicate 3
[15] = Figure 5, 10 µM ghrelin, no PIP2, replicate 1
[16] = Figure 5, 10 µM ghrelin, no PIP2, replicate 2
[17] = Figure 5, 10 µM ghrelin, no PIP2, replicate 3
[18] = saturating ligand (10 µM), vs apo

ghrelin: natural full agonist of GHSR, natural peptide agonist (GSSFLSPEHQRVQQRKESKKPPAKLQPR; not fully specified; ends and bridges not checked; UniProt Q9UBU3 24-51, looked up)
H parameter [1, 9]: 21.07
H parameter [1, 10]: 20.32
H parameter [1, 11]: 19.11
H parameter [1, 12]: 15.658
H parameter [1, 13]: 15.178
H parameter [1, 14]: 13.342
H parameter [1, 15]: 18.095
H parameter [1, 16]: 20.174
H parameter [1, 17]: 21.958
change in the hydration parameter at position 6.44 upon binding [1, 18]: local hydration at position 6.44 decreased
H parameter ([2]; replicate 1): 68.24
H parameter ([2]; replicate 2): 63.92
H parameter ([2]; replicate 3): 67.2
H parameter ([3]; replicate 1): 24.96
H parameter ([3]; replicate 2): 23.88
H parameter ([3]; replicate 3): 21.19
H parameter ([4]; replicate 1): 61.86
H parameter ([4]; replicate 2): 65.16
H parameter ([4]; replicate 3): 62.17
change in the hydration parameter at V268^6.40 [4, 18]: no change was observed for V268^6.40
H parameter [5, 9]: 48.83
H parameter [5, 10]: 49.38
H parameter [5, 11]: 47.22
H parameter [5, 12]: 60.136
H parameter [5, 13]: 58.145
H parameter [5, 14]: 61.325
H parameter [5, 15]: 49.568
H parameter [5, 16]: 47.078
H parameter [5, 17]: 48.124
change in the hydration parameter at position 5.58 upon binding [5, 18]: increase in the hydration parameter at position 5.58
change in the hydration parameter at other positions (7H4MC-labeled GHSR): no relevant change in the hydration parameter
ligand binding and activation of W215^5.41 mutant [6]: could still bind its ligands and be activated by ghrelin
effect of labeling on ghrelin binding and receptor-catalyzed Gq activation [7]: essentially neutral with regard to the ability of the receptor to bind ghrelin and activate Gq; also recorded: affected neither ghrelin binding nor the receptor-catalyzed Gq activation in a relevant manner
ghrelin-induced signaling, F272^6.44 to alanine (GHSR F272^6.44 mutants; mutating F272^6.44 to alanine): reduce ghrelin-induced signaling
basal- and ghrelin-induced GHSR activity, F272^6.44 to tyrosine (GHSR F272^6.44 mutants; replacing phenylalanine with tyrosine, compared with alanine): far lower impact on both basal- and ghrelin-induced GHSR activity
ghrelin binding affinity, F272^6.44 to alanine [8]: without affecting ghrelin binding affinity
pharmacological class (GHSR): natural full agonist

From paper PMC8416020 (eLife, 2021)
